Experiments:
Bacillus cereus = test: Agar disc diffusion antibacterial test; details: for diameter of clear zone inhibition / Inhibition %: G, (+) Bacillus cereus; for diameter of clear zone inhibition: 20 µL of 100 µM on 6 mm disc, Control (DMSO) = 6 mm; for Inhibition %: (T–C)/T × 100
CT-DNA [1] = test: DNA thermal denaturation (biothermodynamic properties); type: binding, calf; details: for ΔS°: (ΔH°−ΔG°)/Tm; for ΔH°: Van't Hoff equation; for Tm °C of DNA-compound adduct / Tm (K) of DNA-compound adduct: compound 50 μM : CT-DNA 50 μM (1:1), 260 nm; for Tm °C of DNA-compound adduct: CT DNA alone 68 °C; for Tm (K) of DNA-compound adduct: CT DNA alone 341 K; for ΔTm °C: melting temperature change vs DNA alone; for ΔG°: −R·Tm·ln Km
Procedure: The biothermodynamic properties were obtained from absorption titration by a UV–visible spectrophotometer, accomplished with a temperature-controlled sample container in both the presence and absence of the substances. In a 5 mM Tris-HCl/50 mM NaCl buffer solution with a pH of 7.4, each test substance (50 μM) was incubated with CT-DNA (50 μM) in a 1:1 ratio. The test materials were all warmed at a rate of five degrees Celsius per minute to temperatures between 25 and 100 °C, and the changes in absorbance at 260 nm were carefully monitored. […]
(§1) ɛa is represented as the apparent absorption coefficient value for the MLCT band at a specific concentration of deoxyribonucleic acid and evaluated from Abs/[complex]. ɛ f and ɛb are the absorption coefficients for the chemical substance alone and completely interacted with deoxyribonucleic acid, respectively. ∆Amax = (Amax–A0); ∆A=(Ax–A0), where A0, Ax and Amax are denoted as the optical density of chemical substances alone, the middle form, and the completely interacted form with deoxyribonucleic acid, respectively.
2.2.3. Evaluation of biothermodynamic properties
The thermal denaturation study of CT-DNA is an efficient tool for examining the stability of test compounds bound to double-stranded DNA. […]
double to single stranded DNA. The biothermodynamic parameters also involve powerful proof for binding between test compounds and DNA. The denaturation of the biomolecules depends on T m, pH and non-physiological concentrations of salt, organic solvents and other chemical agents, etc. The DNA double helix breaks into two single strands as the temperature or pH rises, which is ascribed to the breaking of hydrophobic stacking attractions and the dissolution of H-bonds between the DNA base pairs as a result of the hydroxide ions' […]
withdrawing of the hydrogen ions (H +) from DNA base pairs. It causes a hyperchromic shift […]
inversely proportional to viscosity. Low salt concentration, conversely, can also denature DNA double-strands by eliminating the ions that stabilize the negative charges on the two strands from each other. By using UV-Vis analysis in a temperature-controlled sample holder, DNA thermal denaturation was carried out both in the absence and presence of the test compounds. In 5mM Tris-HCl /50 mM NaCl buffer (pH = 7.4) solution, each test substance (50 μM) was incubated in a 1:1 ratio with CT- DNA (50 μM). All samples were heated in the range of 25 to 100 °C at a rate of 5 °C per minute and the absorbance changes at 260 nm were constantly monitored. T m of DNA alone was evaluated as the midpoint of the sigmoid’ curves plotted absorbance vs temperature profiles. The Tm is depends on the double-stranded DNA stability. Due to substantial intercalation in DNA-complex adducts, the […]
temperature. When increasing temperature, double-stranded DNA converts into two single strands at the melting point, which leads to hyperchromic effect due to reducing the base-base interaction. As compared to DNA alone at the same high temperature, the incubated DNA solution with test compounds leads to hyporchromic effect accompanied with red shift.
Strong interactions between complexes and DNA, which restrict the separation of the double helix, cause the stabilization, and as a result, T m rises. In accordance with the T m, 50% of DNA is in its native double-stranded state, and the remaining 50% is in its denaturalized single-stranded state.
ΔG° = – R.Tm. lnKm = ΔH°– Tm ΔS° (S10)
Where K1 is represented as the binding constant value at 298 K (T r), the binding constant K 2 (Km), which indicates the temperature at which substances melt their DNA (T m K), This […]
technique offers crucial data on binding constants and associated ΔG °, ΔS° and ΔH° findings for compound-deoxyribonucleic acid systems. […]
not deliver definite confirmation for the exact mode of interactions. The experiment

Staphylococcus Aureus = test: Agar disc diffusion antibacterial test; details: for diameter of clear zone inhibition / Inhibition %: F, (+) Staphylococcus Aureus; for diameter of clear zone inhibition: 20 µL of 100 µM on 6 mm disc, Control (DMSO) = 6 mm; for Inhibition %: (T–C)/T × 100
CT-DNA [2] = test: DNA binding by UV–visible absorption titration; parameters: species or system calf; details: for ΔGb° values, range over all methods (WS, BH, SK): DNA binding; for ΔGb° values, range over all methods (WS, BH, SK) / Kb, BH–I (Benesi–Hildebrand method I) / Kb, BH–II (Benesi–Hildebrand method II) / Kb, SK–I (Sakthi–Krause method I) / Kb, SK–II (Sakthi–Krause method II) / Kb, WS–I (Wolfe-Shimmer method I) / Kb, WS–II (Wolfe-Shimmer method II): UV–Vis titration; for % H (hypochromism) / Δλ nm (red shift on binding to CT-DNA): compound 50 μM, DNA 0–50 μM, Tris-HCl buffer pH 7.4, 25 °C; for Kb, BH–I (Benesi–Hildebrand method I) / Kb, BH–II (Benesi–Hildebrand method II) / Kb, SK–I (Sakthi–Krause method I) / Kb, SK–II (Sakthi–Krause method II) / Kb, WS–I (Wolfe-Shimmer method I) / Kb, WS–II (Wolfe-Shimmer method II): intrinsic DNA binding constant; for ΔGb°, BH–I / ΔGb°, BH–II / ΔGb°, SK–I / ΔGb°, SK–II / ΔGb°, WS–I / ΔGb°, WS–II: −RT ln Kb, T = 298 K
Procedure: The DNA-binding experiment was performed by a UV–visible spectrophotometer by raising the DNA concentration from zero to 50 μM to the given concentration of all samples (50 μM) in Tris-HCl buffer with a pH of 7.4 at 25 °C [21, 22].
2.2.2. Evaluation of DNA-binding characteristics
By increasing the concentration of DNA (0 –50 μM), electronic absorption titrations were performed at the fixed concentration (50 μM) of all test compounds in aqueous media at room temperature. The Tris-HCl buffer (5mM Tris-HCl /50 mM NaCl, pH = 7.2) solution was guaranteed to be pure and contain sufficient amounts of DNA. Using the molar extinction coefficient (6600 M −1 cm−1) at 260 nm, it was also possible to measure the DNA concentration per nucleotide and polynucleotide, denoting that the DNA was sufficiently free of protein by the ratio of absorbance at 260 and 280 nm of roughly 1.8 –1.9 [21, 22]. When raising the concentration of DNA in compound solution, up to the point of completely binding, the decrease in absorbance intensity was carefully observed. […]
as §1

[3] = Nitric oxide scavenging assay; type: biochemical; details: 546 nm

Row | SMILES | Inhibition % (Bacillus cereus) [%] | Binding Constant Kr (or) K1 @ 298 K (CT-DNA [1]) [M⁻¹] | ΔS° (CT-DNA [1]) [cal mol^−1 K^−1] | ΔH° (CT-DNA [1]) [kcal/mol] | Tm °C of DNA-compound adduct (CT-DNA [1]) [°C] | Tm (K) of DNA-compound adduct (CT-DNA [1]) [K] | ΔTm °C (CT-DNA [1]) [°C] | ΔG° (CT-DNA [1]) [kcal/mol] | Inhibition % (Staphylococcus Aureus) [%] | % H (hypochromism) (CT-DNA [2]) [%] | Δλ nm (red shift on binding to CT-DNA) (CT-DNA [2]) [nm] | Kb, BH–I (Benesi–Hildebrand method I) (CT-DNA [2]) | Kb, BH–II (Benesi–Hildebrand method II) (CT-DNA [2]) | Kb, SK–I (Sakthi–Krause method I) (CT-DNA [2]) [M⁻¹] | Kb, SK–II (Sakthi–Krause method II) (CT-DNA [2]) [M⁻¹] | Kb, WS–I (Wolfe-Shimmer method I) (CT-DNA [2]) [M⁻¹] | Kb, WS–II (Wolfe-Shimmer method II) (CT-DNA [2]) [M⁻¹] | ΔGb°, BH–I (CT-DNA [2]) | ΔGb°, BH–II (CT-DNA [2]) | ΔGb°, SK–I (CT-DNA [2]) [kJmol^−1] | further results
1 | [Cu+2].[O-]c1ccccc1N=Cc1ccc(N2CCOCC2)cc1.[O-]c1ccccc1N=Cc1ccc(N2CCOCC2)cc1.c1cnc2c(c1)ccc1cccnc12 [(1b), [Cu^II(L)2(phen)]] | 40 | 20610 | −7.6237 | -8.1538 | 80.5 | 353.5 | 12.5 | -5.4588 | 45 | 56.88 | 7 | 25359 M⁻¹ | 25251 M⁻¹ | 20314 | 21747 | 20610 | 21357 | −25.12 kJmol^−1 | −25.11 kJmol^−1 | −24.58 | diameter of clear zone inhibition (Bacillus cereus): 10 mm; diameter of clear zone inhibition (Staphylococcus Aureus): 11 mm; ΔGb° values, range over all methods (WS, BH, SK) (CT-DNA [2]): −24.58 to −25.12 kJmol^−1; ΔGb°, SK–II (CT-DNA [2]): −24.74 kJmol^−1; ΔGb°, WS–I (CT-DNA [2]): −24.61 kJmol^−1; ΔGb°, WS–II (CT-DNA [2]): −24.70 kJmol^−1; % Inhibition, nitric oxide ([3]; 40 µM): 18.03%; % Inhibition, nitric oxide ([3]; 80 µM): 25.43%; % Inhibition, nitric oxide ([3]; 120 µM): 35.67%; % Inhibition, nitric oxide ([3]; 160 µM): 42.86%; % Inhibition, nitric oxide ([3]; 200 µM): 52.29%; % Inhibition, nitric oxide ([3]; 240 µM): 66.21%
2 | [O-]c1ccccc1N=Cc1ccc(N2CCOCC2)cc1.[O-]c1ccccc1N=Cc1ccc(N2CCOCC2)cc1.[Zn+2].c1cnc2c(c1)ccc1cccnc12 [(2b), [Zn^II(L)2(phen)]] | 45 | 19930 | −9.1806 | -8.5979 | 78.5 | 351.5 | 10.5 | -5.3709 | 45 | 55.75 | 5 | 20131 M⁻¹ | 20035 M⁻¹ | 19471 | 20897 | 19930 | 20811 | −24.55 kJmol^−1 | −24.54 kJmol^−1 | −24.47 | diameter of clear zone inhibition (Bacillus cereus): 11 mm; diameter of clear zone inhibition (Staphylococcus Aureus): 11 mm; ΔGb° values, range over all methods (WS, BH, SK) (CT-DNA [2]): −24.47 to −24.65 kJmol^−1; ΔGb°, SK–II (CT-DNA [2]): −24.65 kJmol^−1; ΔGb°, WS–I (CT-DNA [2]): −24.53 kJmol^−1; ΔGb°, WS–II (CT-DNA [2]): −24.64 kJmol^−1; % Inhibition, nitric oxide ([3]; 40 µM): 14.67%; % Inhibition, nitric oxide ([3]; 80 µM): 22.43%; % Inhibition, nitric oxide ([3]; 120 µM): 29.42%; % Inhibition, nitric oxide ([3]; 160 µM): 38.82%; % Inhibition, nitric oxide ([3]; 200 µM): 45.53%; % Inhibition, nitric oxide ([3]; 240 µM): 59.88%
3 | Oc1ccccc1N=Cc1ccc(N2CCOCC2)cc1 [(HL), 2-(4-morpholinobenzylideneamino)phenol] | 33 | 15169 | −13.7851 | -9.8083 | 74 | 347.0 | 6 | -5.0249 | 33 | 46.88 | 4 | 1.0545 (1.0545) × 10^4 M^−1 | 1.0545 (1.0545) × 10^4 M^−1 | 8775 | 15618 | 15169 | 15480 | −22.95 (−22.95) kJmol^−1 | −22.95 (−22.95) kJmol^−1 | −22.50 | zone of inhibition at 100 µM (Bacillus cereus; Bacillus cereus, read-out: diameter of clear zone inhibition): 9 mm; zone of inhibition at 100 µM (Staphylococcus Aureus; Staphylococcus aureus, read-out: diameter of clear zone inhibition): 9 mm; ΔGb°, SK–II (CT-DNA [2]): −23.92 kJmol^−1; ΔGb°, WS–I (CT-DNA [2]): −23.85 kJmol^−1; ΔGb°, WS–II (CT-DNA [2]): −23.90 kJmol^−1; % Inhibition, nitric oxide ([3]; 40 µM): 11.42%; % Inhibition, nitric oxide ([3]; 80 µM): 18.26%; % Inhibition, nitric oxide ([3]; 120 µM): 24.28%; % Inhibition, nitric oxide ([3]; 160 µM): 33.21%; % Inhibition, nitric oxide ([3]; 200 µM): 40.53%; % Inhibition, nitric oxide ([3]; 240 µM): 51.62%
